Values joined by “and” are separate entries in the source; they are usually repeats but may differ in a detail not shown here. Equal entries are not always repeated.
Assay: xn = mol fraction of the nth substance listed

CCCCCCCCN + c1ccccc1
303.15 K, 101 kPa
Details	viscosity [mPa·s]
x2 = 0.1044	1.099
x2 = 0.3007	0.9459
x2 = 0.498	0.7915
x2 = 0.597	0.7318
x2 = 0.6967	0.6798
x2 = 0.7998	0.6239
x2 = 0.899	0.5891

Cc1ccc(C)cc1 + C1CCCCC1
101 kPa
Details	viscosity [mPa·s]
303 K, x1 = 0.1025	0.7341
303 K, x1 = 0.2016	0.6783
303 K, x1 = 0.2982	0.6363
303 K, x1 = 0.402	0.6131
303 K, x1 = 0.4944	0.5946
303 K, x1 = 0.5992	0.5858
303 K, x1 = 0.7997	0.5735
303 K, x1 = 0.8951	0.5721
303.15 K, x2 = 0.1016	0.5673
303.15 K, x2 = 0.1997	0.572
303.15 K, x2 = 0.2851	0.5782
303.15 K, x2 = 0.3934	0.591
303.15 K, x2 = 0.4966	0.611
303.15 K, x2 = 0.5961	0.6362
303.15 K, x2 = 0.6976	0.6682
303.15 K, x2 = 0.7954	0.7086
303.15 K, x2 = 0.8986	0.763
313 K, x1 = 0.1025	0.6343
313 K, x1 = 0.2016	0.5965
313 K, x1 = 0.2982	0.5693
313 K, x1 = 0.402	0.5417
313 K, x1 = 0.4944	0.5288
313 K, x1 = 0.5992	0.5165
313 K, x1 = 0.6952	0.5142
313 K, x1 = 0.7997	0.5159
323 K, x1 = 0.1025	0.54
323 K, x1 = 0.2016	0.5237
323 K, x1 = 0.2982	0.4976
323 K, x1 = 0.402	0.4831
323 K, x1 = 0.4944	0.4765
323 K, x1 = 0.6952	0.462
323 K, x1 = 0.7997	0.4612
323 K, x1 = 0.8951	0.4608

Cc1ccc(C)cc1 + CC(C)CC(C)(C)C
308.15 K, 101 kPa
Details	viscosity [mPa·s]
x2 = 0.072	0.5266
x2 = 0.1401	0.5074
x2 = 0.2197	0.4893
x2 = 0.3074	0.4732
x2 = 0.4051	0.4595
x2 = 0.507	0.4479
x2 = 0.6185	0.44
x2 = 0.7382	0.4348
x2 = 0.8619	0.4333

CCCCCCCCCCCCO + C=CC(=O)OCC
viscosity [mPa·s], 101.3 kPa
Details	x2 = 0.0932	x2 = 0.2669	x2 = 0.3351	x2 = 0.4687	x2 = 0.5769	x2 = 0.7542	x2 = 0.8231	x2 = 0.8907	x2 = 0.9643	x2 = 0.9743
298.15 K	11.28	6.404	5.497	3.183	2.253	1.192	0.963	0.74	0.584	0.565
308.15 K	10.08	4.772	4.182	2.515	1.748	0.997	0.792	0.633	0.512	0.497

O=Cc1ccccc1 + CCO
298.15 K, 101.33 kPa
Details	viscosity [mPa·s]
x1 = 0.05414	1.092
x1 = 0.08518	1.052
x1 = 0.1016	1.05
x1 = 0.1182	1.051
x1 = 0.1595	1.031
x1 = 0.1727	1.041
x1 = 0.3372	1.158
x1 = 0.6248	1.308
x1 = 0.8076	1.362

O=C(O)CCC(=O)O + CCCO
101 kPa
Details	viscosity [mPa·s]
308.15 K, x1 = 0.0284	1.872
313.15 K, x1 = 0.0284	1.657
313.15 K, x1 = 0.03	1.657
313.15 K, x1 = 0.037	1.72
313.15 K, x1 = 0.043	1.777
313.15 K, x1 = 0.0435	1.888
313.15 K, x1 = 0.048	1.888
318.15 K, x1 = 0.0284	1.492
318.15 K, x1 = 0.0435	1.635
323.15 K, x1 = 0.0284	1.326
323.15 K, x1 = 0.0435	1.462

O=C(O)c1ccccc1C(=O)O + CCCO
viscosity [mPa·s]
Details	308.15 K	313.15 K	318.15 K	323.15 K
101 kPa, x1 = 0.02	–	1.632	–	–
101 kPa, x1 = 0.027	–	1.732	–	–
101 kPa, x1 = 0.0369	–	1.887	–	–
101.33 kPa, x1 = 0.02	1.78	1.632	1.457	1.302
101.33 kPa, x1 = 0.0369	2.133	1.887	1.672	1.488

CCc1cccc(CC)c1 + CCCCCCCCCCCC
viscosity [mPa·s], 102 kPa
Details	x1 = 0.0991	x1 = 0.2011	x1 = 0.2996	x1 = 0.4004	x1 = 0.5006	x1 = 0.5983	x1 = 0.6998	x1 = 0.7998	x1 = 0.9001
293.15 K	1.4	1.31	1.23	1.16	1.09	1.03	0.971	0.927	0.885
303.15 K	1.18	1.11	1.05	1	0.94	0.9	0.852	0.811	0.778
313.15 K	1.01	0.962	0.916	0.871	0.831	0.792	0.751	0.717	0.69
323.15 K	0.886	0.843	0.806	0.768	0.735	0.703	0.67	0.642	0.618

Cc1ccc(C)cc1 + COC(=O)OC
298.15 K, 101.3 kPa
Details	viscosity [mPa·s]
x2 = 0.1097	0.592
x2 = 0.1824	0.591
x2 = 0.2345	0.59
x2 = 0.2757	0.589
x2 = 0.3294	0.586
x2 = 0.3683	0.586
x2 = 0.5137	0.588
x2 = 0.6046	0.588
x2 = 0.7164	0.59
x2 = 0.8442	0.587

c1ccc(Nc2ccccc2)cc1 + CCCCCC
viscosity
Details	298.15 K	303.15 K	308.15 K	313.15 K	318.15 K
101 kPa, x1 = 0.0477	0.3866 mPa·s	0.3675 mPa·s	0.3515 mPa·s	0.3325 mPa·s	0.3164 mPa·s
101 kPa, x1 = 0.1451	–	0.5085 mPa·s	0.4768 mPa·s	0.4472 mPa·s	0.4182 mPa·s
101.33 kPa, x1 = 0.03537	–	0.352 mPa·s	–	–	0.3079 mPa·s
101.33 kPa, x1 = 0.04767	–	0.3675 mPa·s	–	–	0.3164 mPa·s
101.33 kPa, x1 = 0.0477	0.3866 mPa·s	0.3675 mPa·s	0.3515 mPa·s	0.3325 mPa·s	0.3164 mPa·s
101.33 kPa, x1 = 0.05985	–	0.3824 mPa·s	–	–	0.3288 mPa·s
101.33 kPa, x1 = 0.1451	–	0.5085 mPa·s and 0.5085 mPa·s	0.4768 mPa·s	0.4472 mPa·s	0.4182 mPa·s and 0.4182 mPa·s
101.33 kPa, x1 = 0.3067	–	1.53 mPa·s	–	–	0.7796 mPa·s

CCCCCCCCCCCCCCCCCC(=O)OC + C1CCCCC1
viscosity [mPa·s], 101 kPa
Details	x1 = 0.05	x1 = 0.1	x1 = 0.15	x1 = 0.2	x1 = 0.25	x1 = 0.3
298 K	1.22	1.46	1.73	2.03	2.33	–
303 K	1.14	1.35	1.58	1.86	2.12	2.45
308 K	1.06	1.25	1.46	1.71	1.95	2.2
313 K	0.99	1.16	1.34	1.58	1.78	2.02

Cc1ccc(C)cc1 + CC#N
308.15 K, 101 kPa
Details	viscosity [mPa·s]
x1 = 0.1008	0.3403
x1 = 0.2001	0.3636
x1 = 0.2981	0.3915
x1 = 0.3964	0.4147
x1 = 0.4985	0.4387
x1 = 0.5923	0.4603
x1 = 0.6937	0.4799
x1 = 0.7907	0.4989
x1 = 0.9051	0.5199
